Here are results for 2 compounds from US8518889B2, “Method of treating cancer with antibodies against long-form leukotriene B4 receptor BLT2” (Korea University Research & Business Foundation, priority 2007, dated 2013).

For one assay, the system named is MCF-7 cells. To be noted: LY255283 10 μM, epirubicin 100 ng/ml.
Assay [1] relates to human pancreatic cancer cells. To be noted: cited from earlier work.

Each structure is given as a SMILES string.

In the case of `COc1cccc2c1C(=O)c1c(O)c3c(c(O)c1C2=O)C[C@@](O)(C(=O)CO)C[C@@H]3O[C@H]1C[C@H](N)[C@@H](O)[C@H](C)O1` [Epirubicin], the “DNA fragmentation / cell death” value with MCF-7 cells is “only tiny increase in cell death”. On to `CCCc1c(OCCCOc2cc(O)c(-c3ccc(F)cc3)cc2CC)cccc1Oc1ccccc1C(=O)O` [LY293111], for which, in assay [1], the “growth and apoptosis of human pancreatic cancer cells” value is “inhibited the growth of and induced apoptosis of”.
